Measured values taken from ChEMBL document CHEMBL1201862, “PubChem BioAssay data set” (2004).
The source made the active and inactive calls.

Experiments:
[1] = P. falciparum Dd2 growth inhibitors, dose response, SYBR Green, cherry-picked samples (AID 1159567); assay type: functional, cell-based
[2] = toxicity to human hepatoma HepG2 cells – cell-based, cherry-picked samples, cytotoxicity control, dose response (AID 1159577); assay type: functional
[3] = OVCAR8 cell viability loss – plate reader, dry powder samples, PAX8 project, dose response (AID 743197); assay type: functional, cell-based; conditions: OVCAR-8
[4] = general cell-killing toxicity readout – plate reader, dry powder samples, cytotoxicity control for PAX8 inhibitor project, dose response (AID 743021); assay type: functional, cell-based
[5] = toxicity toward immortalized ovarian surface epithelium – cell-based, plate reader, dry powder samples, cytotoxicity control for PAX8 inhibitor project, dose response (AID 743045); assay type: functional
[6] = IGROV1 cell killing – plate reader, dry powder samples, PAX8 inhibitor project, dose response (AID 743043); assay type: functional, cell-based; conditions: IGROV-1
Paired box protein Pax-8 = Paired box protein Pax-8 (Homo sapiens, UniProt Q06710); assay: PAX8 transcriptional activity inhibition in RMG-I – RMG-I cells, luciferase, cherry-pick, dose response (AID 687027); assay type: functional, cell-based;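 also: luciferase reporter driven by Pax8 target thyroperoxidase promoter measured by SteadyGlo luminescence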
Paired box protein Pax-8, sequence (Q06710 whole entry): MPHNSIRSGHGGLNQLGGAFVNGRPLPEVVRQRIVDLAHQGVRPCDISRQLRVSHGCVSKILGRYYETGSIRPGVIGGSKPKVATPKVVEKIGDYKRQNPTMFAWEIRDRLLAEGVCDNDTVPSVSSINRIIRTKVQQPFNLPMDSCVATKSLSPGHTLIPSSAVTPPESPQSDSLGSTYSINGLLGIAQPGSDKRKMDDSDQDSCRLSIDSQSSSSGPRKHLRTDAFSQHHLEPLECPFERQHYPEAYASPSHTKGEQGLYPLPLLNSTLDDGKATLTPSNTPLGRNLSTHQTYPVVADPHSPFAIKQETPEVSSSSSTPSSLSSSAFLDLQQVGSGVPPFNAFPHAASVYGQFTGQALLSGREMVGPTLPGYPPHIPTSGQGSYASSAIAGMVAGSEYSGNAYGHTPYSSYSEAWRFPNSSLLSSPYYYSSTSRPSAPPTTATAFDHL

[7] = OVCAR-3 cell viability loss – plate reader, dry powder samples, PAX8 inhibitor project, dose response (AID 743044); assay type: functional, cell-based
[8] = A2780 cell killing – plate reader, dry powder samples, cytotoxicity control, dose response (AID 743046); assay type: functional, cell-based
[9] = reduced cellular PGC1a acetyl-lysine signal – cell-based, cherry-picked samples, dose response (AID 720514); assay type: functional;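 also: potency may reflect raised or lowered acetylation signal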
[10] = Late stage assay provider results from the probe development effort to identify inhibitors of the Plasmodium falciparum M18 Aspartyl Aminopeptidase (M18AAP): radiolabel-based cell-based dose response assay to identify compounds that inhibit P. falciparum growth in RBCs, Set 2..; assay type: functional
[11] = viability loss in A549 lung cells – cell-based, 24 h, CellTiter-Glo luminescence, cherry-picks, cytotoxicity control, dose response (AID 1053115); assay type: functional; conditions: A549, 24 h
[12] = target: T1, Carboxy-terminal domain RNA polymerase II polypeptide A small phosphatase 1 (Homo sapiens, UniProt Q9GZU7); assay: CTDSP1 inhibitors, concentration-response, biochemical, absorbance readout, ultra-high-throughput screen actives (AID 540297); assay type: functional
T1 sequence (Q9GZU7 whole entry): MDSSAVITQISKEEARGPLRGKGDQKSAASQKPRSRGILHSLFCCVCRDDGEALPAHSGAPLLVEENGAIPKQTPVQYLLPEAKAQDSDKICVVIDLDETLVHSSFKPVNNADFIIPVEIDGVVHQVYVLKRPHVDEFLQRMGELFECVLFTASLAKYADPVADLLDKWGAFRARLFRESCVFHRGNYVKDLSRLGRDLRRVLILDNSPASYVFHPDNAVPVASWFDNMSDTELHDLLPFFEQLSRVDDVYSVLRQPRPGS

[13] = IC50 of Artemis nuclease activity blockers – biochemical, fluorescence intensity, dose response (AID 720701); assay type: functional;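 also: Artemis endonuclease enzyme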
[14] = target: Induced myeloid leukemia cell differentiation protein Mcl-1 (Homo sapiens, UniProt Q07820); assay type: functional
Induced myeloid leukemia cell differentiation protein Mcl-1, sequence (Q07820 whole entry): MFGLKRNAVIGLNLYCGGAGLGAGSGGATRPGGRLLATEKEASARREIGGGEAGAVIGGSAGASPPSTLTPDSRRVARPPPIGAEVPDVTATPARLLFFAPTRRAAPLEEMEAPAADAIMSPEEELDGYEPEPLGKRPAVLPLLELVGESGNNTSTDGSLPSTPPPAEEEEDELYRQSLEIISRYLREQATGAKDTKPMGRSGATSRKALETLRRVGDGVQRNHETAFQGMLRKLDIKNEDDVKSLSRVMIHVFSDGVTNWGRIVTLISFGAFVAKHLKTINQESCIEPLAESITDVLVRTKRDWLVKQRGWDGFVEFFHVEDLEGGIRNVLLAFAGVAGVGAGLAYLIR

Estrogen receptor beta = Estrogen receptor beta (Homo sapiens, UniProt Q92731);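 also: recombinant ER-beta bound to coactivator SRC1 peptide in presence of estradiol agonist; inhibitors block coactivator peptide binding and lower the FRET signal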
Estrogen receptor beta, sequence (Q92731 whole entry): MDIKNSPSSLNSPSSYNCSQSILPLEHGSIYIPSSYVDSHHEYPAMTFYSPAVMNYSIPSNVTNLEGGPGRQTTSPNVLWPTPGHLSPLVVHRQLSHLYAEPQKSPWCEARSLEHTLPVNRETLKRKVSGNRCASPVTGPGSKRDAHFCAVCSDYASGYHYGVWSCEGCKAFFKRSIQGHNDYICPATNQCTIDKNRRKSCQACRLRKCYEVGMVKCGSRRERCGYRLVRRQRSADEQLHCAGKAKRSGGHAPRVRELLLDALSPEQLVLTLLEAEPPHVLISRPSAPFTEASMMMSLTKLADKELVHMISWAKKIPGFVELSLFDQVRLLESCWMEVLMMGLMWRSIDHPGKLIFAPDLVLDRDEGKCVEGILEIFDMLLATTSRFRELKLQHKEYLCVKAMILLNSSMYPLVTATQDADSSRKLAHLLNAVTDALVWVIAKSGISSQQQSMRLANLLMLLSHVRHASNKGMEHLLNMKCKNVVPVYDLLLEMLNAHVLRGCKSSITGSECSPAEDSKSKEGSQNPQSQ

[15] = target: RNA-editing ligase 1, mitochondrial (Trypanosoma brucei brucei, UniProt P86926); assay: inhibition of trypanosome RNA editing ligase – biochemical, fluorescence, Trypanosoma brucei, dose response (AID 1117295); assay type: functional
RNA-editing ligase 1, mitochondrial, sequence (P86926 whole entry): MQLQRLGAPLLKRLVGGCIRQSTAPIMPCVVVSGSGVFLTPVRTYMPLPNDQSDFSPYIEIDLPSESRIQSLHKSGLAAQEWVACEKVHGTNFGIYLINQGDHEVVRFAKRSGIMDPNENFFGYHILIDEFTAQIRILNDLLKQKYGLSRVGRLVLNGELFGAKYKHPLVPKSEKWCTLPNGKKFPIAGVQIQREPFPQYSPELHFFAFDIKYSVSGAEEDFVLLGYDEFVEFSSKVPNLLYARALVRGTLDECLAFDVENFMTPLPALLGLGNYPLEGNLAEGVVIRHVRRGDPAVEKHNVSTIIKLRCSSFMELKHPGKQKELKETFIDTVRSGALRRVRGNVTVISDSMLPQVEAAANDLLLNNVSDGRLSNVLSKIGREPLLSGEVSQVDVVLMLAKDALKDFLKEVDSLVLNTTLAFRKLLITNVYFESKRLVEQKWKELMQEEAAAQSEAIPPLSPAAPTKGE

[16] = target: G-protein coupled receptor 183 (Homo sapiens, UniProt P32249); assay: SAR confirmation of small molecule antagonists of the EBI2 receptor via a luminescent beta-arrestin assa.; assay type: functional
G-protein coupled receptor 183, sequence (P32249 whole entry): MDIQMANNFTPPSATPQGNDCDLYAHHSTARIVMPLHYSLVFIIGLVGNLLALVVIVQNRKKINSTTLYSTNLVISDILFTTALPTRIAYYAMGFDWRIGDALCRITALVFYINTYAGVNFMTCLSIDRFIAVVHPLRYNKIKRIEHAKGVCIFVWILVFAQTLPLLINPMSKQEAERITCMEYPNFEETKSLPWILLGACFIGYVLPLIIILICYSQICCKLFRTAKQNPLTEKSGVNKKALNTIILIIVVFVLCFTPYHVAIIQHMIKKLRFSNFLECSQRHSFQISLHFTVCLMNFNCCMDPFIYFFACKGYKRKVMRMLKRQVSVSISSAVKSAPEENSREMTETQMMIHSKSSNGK

[17] = target: T2, Low molecular weight phosphotyrosine protein phosphatase (Homo sapiens, UniProt P24666); assay: inhibition of LMPTP-A enzymatic activity – biochemical, OMFP substrate, fluorescence intensity, set 2, dose response (AID 743307); assay type: functional
T2 sequence (P24666 whole entry): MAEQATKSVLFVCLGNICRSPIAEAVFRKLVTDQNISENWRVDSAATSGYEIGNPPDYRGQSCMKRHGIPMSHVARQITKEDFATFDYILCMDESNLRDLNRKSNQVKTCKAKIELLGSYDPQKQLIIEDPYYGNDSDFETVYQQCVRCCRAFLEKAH

[18] = target: T2, Low molecular weight phosphotyrosine protein phosphatase; assay: inhibition of human LMPTP enzyme activity – biochemical, absorbance, pNPP substrate, LMPTP-A isoform, set 2, orthogonal assay, dose response (AID 743308); assay type: functional
[19] = antimalarial activity against Dd2 parasites – SYBR Green fluorescence, erythrocytes, dry powder, set 2, dose response (AID 1159574); assay type: functional, cell-based

## COc1ccc(C#Cc2ccc([C@H]3[C@@H](CO)N4CCCCN(C(=O)Nc5cccc(F)c5)C[C@H]34)cc2)cc1
[1]
  AC50: 1.28 µM (active)
[2]
  AC50: 7.31 µM (active)
[3]
  AC50: > 70 µM (inactive)
[4]
  AC50: 32.1 µM (active)
[5]
  AC50: 32.3 µM (active)
[6]
  AC50: 21.1 µM (active)
Paired box protein Pax-8
  AC50: 10.9 µM (active)
[7]
  AC50: 10 µM (active)
[8]
  AC50: 12.2 µM (active)

## COc1cc(CN2C[C@@H]3N[C@H](C2)[C@@H]3c2ccc(-c3cccc(OC)c3)cc2)cc(OC)c1
[9]
  AC50: 9.18 µM (active)

## O=c1ccn(CCNc2c3ccccc3nc3ccccc23)cc1OCc1ccccc1
[10]
  IC50: 4.7 µM (active)

## OC[C@@H]1Nc2ccc(-c3cccc(F)c3)cc2[C@@H]2[C@H]1CCN2Cc1ccc(F)cc1
[1]
  AC50: 5.68 µM (active)
[2]
  AC50: 17.8 µM (active)
[11]
  AC50: 52 µM (active)

## Cc1nc2c(c(=O)n1CCC1=CCCCC1)c1nc3ccccc3nc1n2/N=C/c1ccco1
[12]
  IC50: 10.1 µM (active)
[13]
  IC50: 18.5 µM (active)
[14]
  IC50: 4.9 µM (active)
Estrogen receptor beta
  IC50: > 50 µM (not active)

## COC(=O)C1=C(C)N(Cc2ccccc2C(F)(F)F)C(NCc2ccc(OC)cc2)=NC1c1ccccc1 (stereo not drawn)
[15]
  IC50: > 96.6 µM (inactive)

## O=C(/C=C/c1ccc(F)cc1)N1CCN(S(=O)(=O)c2cccc3ccccc23)CC1
[16]
  IC50: 0.0497 µM (active)

## Fc1cccc(-c2cc(NCCCN3CCCCC3)c3ccccc3n2)c1
[17]
  IC50: 1.84 µM (active)
[18]
  IC50: 4 µM (active)

## COc1ccc(S(=O)(=O)N(C)C[C@@H]2OCc3ccccc3-c3c(n(C)c4ccccc34)C(=O)N([C@@H](C)CO)C[C@H]2C)cc1
[19]
  AC50: 2.27 µM (active)
